Tests used:
Ebolavirus [1] = assay: Potency index, ratio of EC50 of GS-441524 to EC50 of test compound for antiviral activity against Ebola infected in human macrophages assessed as reduction in viral replication; format: functional, Macrophage
Ebolavirus [2] = assay: Antiviral activity against Ebola infected in human HeLa cells assessed as reduction in viral replication; format: functional, organism-based; settings: Orthoebolavirus
Marburgvirus [3] = assay: Antiviral activity against MARV Rec. Bat371-GFP infected in human Huh-7 cells assessed as reduction in viral replication incubated for 48 to 144 hrs by fluorescence based assay; format: functional, organism-based; settings: Orthomarburgvirus
Marburgvirus [4] = assay: Potency index, ratio of EC50 of GS-441524 to EC50 of test compound for antiviral activity against MARV Rec. Bat371-GFP infected in human Huh-7 cells assessed as reduction in viral replication incubated for 48 to 144 hrs by fluorescence based assay; format: functional; settings: time 48-144 hrs
Nipah virus = assay: Potency index, ratio of EC50 of GS-441524 to EC50 of test compound for antiviral activity against Nipah M1999 infected in human HeLa cells assessed as reduction in viral replication incubated for 48 to 144 hrs by reporter virus assay; format: functional, Henipavirus nipahense; settings: time 48-144 hrs
Measles morbillivirus [5] = assay: Antiviral activity against Measles Rec.rMVEZGFP(3) infected in human HeLa cells assessed as reduction in viral replication incubated for 48 to 144 hrs by fluorescence based assay; format: functional, organism-based
Measles morbillivirus [6] = assay: Potency index, ratio of EC50 of GS-441524 to EC50 of test compound for antiviral activity against Measles Rec.rMVEZGFP(3) infected in human HeLa cells assessed as reduction in viral replication incubated for 48 to 144 hrs by fluorescence based assay; format: functional; settings: time 48-144 hrs
Measles morbillivirus [7] = assay: Potency index, ratio of EC50 of GS-441524 to EC50 of test compound for antiviral activity against Measles virus infected in HMVEC cells assessed as reduction in viral replication; format: functional
SARS-CoV-2 [8] = assay: Antiviral activity against SARS-CoV-2 infected in human A549 cells expressing hACE2 assessed as reduction in viral replication at MOI of 0.025 incubated for 48 hrs by luciferase based assay; format: functional, organism-based; settings: Severe acute respiratory syndrome coronavirus 2, A549, 48 h
SARS-CoV-2 [9] = assay: Potency index, ratio of EC50 of GS-441524 to EC50 of test compound for antiviral activity against SARS-CoV-2 infected in human A549 cells expressing hACE2 assessed as reduction in viral replication at MOI of 0.025 incubated for 48 hrs by luciferase based assay; format: functional, Severe acute respiratory syndrome coronavirus 2
SARS-CoV-2 [10] = assay: Potency index, ratio of EC50 of GS-441524 to EC50 of test compound for antiviral activity against SARS-CoV-2 infected in human Huh-7 cells assessed as reduction in virus-induced cytopathic effect at MOI of 0.0037 measured after 4 days by MTS assay; format: functional, Severe acute respiratory syndrome coronavirus 2; settings: time 4 day
SARS-CoV-2 [11] = assay: Antiviral activity against SARS-CoV-2 infected in African green monkey Vero E6 cells assessed as reduction in viral replication; format: functional, organism-based; settings: Severe acute respiratory syndrome coronavirus 2, Vero C1008
SARS-CoV-2 [12] = assay: Antiviral activity against SARS-CoV-2 infected in human Caco-2 cells assessed as reduction in viral replication at MOI of 0.01 measured after 72 hrs by qRT-PCR analysis; format: functional, organism-based; settings: Severe acute respiratory syndrome coronavirus 2, Caco-2, 72 h
SARS-CoV-2 [13] = assay: Potency index, ratio of EC50 of GS-441524 to EC50 of test compound for antiviral activity against SARS-CoV-2 infected in human Caco-2 cells assessed as reduction in viral replication at MOI of 0.01 measured after 72 hrs by qRT-PCR analysis; format: functional, Severe acute respiratory syndrome coronavirus 2
SARS-CoV-2 [14] = assay: Antiviral activity against SARS-CoV-2 infected in human Calu-3 cells assessed as reduction in viral replication at MOI of 0.01 measured after 72 hrs by qRT-PCR analysis; format: functional, organism-based; settings: Severe acute respiratory syndrome coronavirus 2, Calu-3, 72 h
SARS-CoV-2 [15] = assay: Potency index, ratio of EC50 of GS-441524 to EC50 of test compound for antiviral activity against SARS-CoV-2 infected in human Calu-3 cells assessed as reduction in viral replication at MOI of 0.01 measured after 72 hrs by qRT-PCR analysis; format: functional, Severe acute respiratory syndrome coronavirus 2
SARS-CoV-2 [16] = assay: (§1) Antiviral activity against SARS-CoV-2 infected in human Calu-3 2B4 cells assessed as reduction in viral replication at MOI of 0.01 preincubated for 2 hrs followed by viral infection for 30 mins and subsequent virus removal and addition of medium containing compound measured after 72 hrs by RT-qPCR analysis; format: functional, organism-based; settings: Severe acute respiratory syndrome coronavirus 2, Calu-3 2B4
SARS-CoV-2 [17] = assay: as §1, with “Potency index, ratio of EC50 of GS-441524 to EC50 of test compound for antiviral” for “Antiviral”, “activity” for “activity against”; format: functional, Severe acute respiratory syndrome coronavirus 2; settings: time 74.5 hrs
SARS-CoV-2 [18] = assay: Antiviral activity against SARS-CoV-2 infected in HAE cells assessed as reduction in viral replication at MOI of 0.5 incubated for 2 hrs followed by virus removal measured after 48 hrs by plaque assay; format: functional, organism-based; settings: Severe acute respiratory syndrome coronavirus 2, HAE
SARS-CoV-2 [19] = assay: Antiviral activity against SARS-CoV-2 infected in human PSC-derived lung epithelial cells assessed as reduction in viral replication; format: functional, organism-based; settings: Severe acute respiratory syndrome coronavirus 2, Epithelial cell
SARS-CoV-2 [20] = assay: Potency index, ratio of EC50 of GS-441524 to EC50 of test compound for antiviral activity against SARS-CoV-2 infected in human PSC-derived lung epithelial cells assessed as reduction in viral replication; format: functional, Severe acute respiratory syndrome coronavirus 2, PSC-derived lung epithelial cell
[21] = test system: Middle East respiratory syndrome-related coronavirus; assay: Potency index, ratio of EC50 of GS-441524 to EC50 of test compound for antiviral activity against MERS-CoV infected in HAE cells assessed as reduction in viral replication at MOI of 0.5 incubated for 3 hrs followed by virus removal measured after 48 hrs by Hoechst 33258 staining based assay; format: functional; settings: time 51 hrs
[22] = Clearance in ferret at 10 mg/kg, iv; format: ADME, organism-based, Mustela putorius furo; settings: in vivo
[23] = Half life in ferret at 10 mg/kg, iv; format: ADME, organism-based, Mustela putorius furo; settings: in vivo
[24] = Volume of distribution at steady state in ferret at 10 mg/kg, iv; format: ADME, organism-based, Mustela putorius furo; settings: in vivo, read-out: Vdss
[25] = AUC (0 to infinity) in ferret at 10 mg/kg, iv; format: ADME, organism-based, Mustela putorius furo; parameters: time infinity, dose 10 mg/kg, route iv; settings: in vivo
[26] = Prodrug conversion in ferret assessed as AUC (0 to last) of parent nucleoside compound at 10 mg/kg, iv; format: ADME, organism-based, Mustela putorius furo; parameters: time 0 - last, dose 10 mg/kg, route iv; settings: in vivo
[27] = Prodrug conversion in ferret lung assessed as triphosphate metabolite formation at 10 mg/kg, iv measured after 24 hrs; format: ADME, organism-based, Mustela putorius furo; settings: in vivo
[28] = Half life in Rhesus monkey at 10 mg/kg, iv; format: ADME, organism-based, Macaca mulatta; settings: in vivo
[29] = Clearance in human at 2.5 mg/kg, iv; format: ADME, organism-based; settings: in vivo
[30] = Half life in human at 2.5 mg/kg, iv; format: ADME, organism-based; settings: in vivo
[31] = Volume of distribution at steady state in human at 2.5 mg/kg, iv; format: ADME, organism-based; settings: in vivo, read-out: Vdss
[32] = AUC (0 to infinity) in human at 2.5 mg/kg, iv; format: ADME, organism-based; parameters: time infinity, dose 2.5 mg/kg, route iv; settings: in vivo
[33] = Prodrug conversion in human assessed as AUC (0 to last) of parent nucleoside compound at 2.5 mg/kg, iv; format: ADME, organism-based; parameters: time 0 - last, dose 2.5 mg/kg, route iv; settings: in vivo
[34] = Prodrug conversion in human macrophages assessed as half life of triphosphate metabolite; format: ADME, cell-based; settings: macrophage
[35] = Stability of prodrug in mouse assessed as half life; format: ADME; settings: in vivo

SMILES: CCC(CC)OC(=O)[C@H](C)N[P@](=O)(OC[C@H]1O[C@@](C#N)(c2ccc3c(N)ncnn23)[C@H](O)[C@@H]1O)Oc1ccccc1
- Ratio (Ebolavirus [1]): >232
- EC50 (Ebolavirus [2]): 140 nM
- EC50 (Marburgvirus [3]): 14 nM
- Ratio (Marburgvirus [4]): 136
- Ratio (Nipah virus): 32
- EC50 (Measles morbillivirus [5]): 37 nM
- Ratio (Measles morbillivirus [6]): 27
- Ratio (Measles morbillivirus [7]): 13
- EC50 (SARS-CoV-2 [8]): 115 nM
- Ratio (SARS-CoV-2 [9]): 7.6
- Ratio (SARS-CoV-2 [10]): >1000
- EC50 (SARS-CoV-2 [11]): 740 nM
- EC50 (SARS-CoV-2 [12]): 1 nM
- Ratio (SARS-CoV-2 [13]): 80
- EC50 (SARS-CoV-2 [14]): 110 nM
- Ratio (SARS-CoV-2 [15]): 2.4
- EC50 (SARS-CoV-2 [16]): 280 nM
- Ratio (SARS-CoV-2 [17]): 2.2
- EC50 (SARS-CoV-2 [18]): 10 nM
- EC50 (SARS-CoV-2 [19]): 140 nM
- Ratio (SARS-CoV-2 [20]): 5.3
- Ratio [21]: 12
- clearance [22]: 43.3 mL/min/kg
- half-life [23]: 11 min
- Vd [24]: 0.34 L/kg
- AUC(0-inf) [25]: 7 µM·h
- AUClast [26]: 18.2 µM·h
- Drug metabolism [27]: 1.28 nmol/g
- half-life [28]: 23 min
- clearance [29]: 14.3 mL/min/kg
- half-life [30]: 60 min
- Vd [31]: 1.22 L/kg
- AUC(0-inf) [32]: 5 µM·h
- AUClast [33]: 7.5 µM·h
- t1/2 [34]: 840 min
- t1/2 [35]: 5 min

From ChEMBL document CHEMBL5107958, “Phosphoramidate Prodrugs Continue to Deliver, The Journey of Remdesivir (GS-5734) from RSV to SARS-CoV-2” (ACS Med Chem Lett, 2022)
